In patent US6962918B2, “Hexahydropyrazino[1'2';1,6]pyrido[3,4-b]indole-1,4-diones for the treatment of cardiovascular disorders and erectile dysfunction” (Lilly Icos LLC., priority 2000, dated 2005):

Key:
[1] = target: T1, PDE5 (bovine aorta) (Bos taurus, UniProt Q28156); assay: Inhibitory effect on cGMP-PDE (PDE5 IC50), bovine aorta enzyme; type: biochemical; details: enzyme marked (bovine aorta) in the cell
T1 construct: from tissue; host or cells: bovine aorta
Method: (§1) cGMP-PDE activity of compounds of the present invention was measured using a one-step assay adapted from Wells et al., Biochim. Biophys. Acta, 384, 430 (1975). The reaction medium contained 50 mM Tris-HCl, pH 7.5, 5 mM magnesium acetate, 250 μg/ml 5′-Nucleotidase,1 mM ECTA, and 0.15 μM 8-[H^3]-cGMP. Unless otherwise indicated, the enzyme used was a human recombinant PDE5 (ICOS Corp., Bothell, Wash.).
(§2) Compounds of the invention were dissolved in DMSO finally present at 2% in the assay.

[2] = target: recombinant human PDE5 (Homo sapiens, UniProt O76074); assay: Inhibitory effect on cGMP-PDE (PDE5 IC50), one-step assay adapted from Wells et al.; type: biochemical; details: 0.15 μM 8-[H3]-cGMP, 30 minutes incubation, 2% DMSO
Method: The compounds of structural formula (I) were tested for an ability to inhibit PDE5. The ability of a compound to inhibit PDE5 activity is related to the IC50 value for the compound, i.e., the concentration of inhibitor required for 50% inhibition of enzyme activity. The IC50 value for compounds of structural formula (I) were determined using recombinant human PDE5.
as §1, §2

| Compound | IC50 [1] | IC50 [2] | melting point |
| --- | --- | --- | --- |
| CN1CC(=O)N2[C@@H](C3CCCCC3)c3[nH]c4ccccc4c3C[C@H]2C1=O (racemic) [Example 20, (+−, cis)-6-Cyclohexyl-2-methyl-2,3,6,7,12,12a-hexa-hydropyrazino[1′2′:1,6]pyrido[3,4-b]indole,1,4-dione] | 230 nM |  |  |
| COCOC[C@@H]1c2[nH]c3ccccc3c2C[C@@H]2C(=O)N(C)CC(=O)N21 [Example 18, (6S,12aR)-Methoxymethoxymethyl-2-methyl-2,3,6,7,12,12a-hexahydropyrazino-[1′,2′:1,6]pyrido[3,4-b]indole-1,4-dione] |  | 195 nM | 180 to 185 °C |
| CN1CC(=O)N2[C@H](c3cc4ccccc4o3)c3[nH]c4ccccc4c3C[C@H]2C1=O [Example 2] |  | 8730 nM | 195 to 198 °C |
| CN1CC(=O)N2[C@@H](c3cc4ccccc4o3)c3[nH]c4ccccc4c3C[C@H]2C1=O [Example 1, (6R,12aS)-6-benzofuran-2-yl-2-methyl-2,3,6,7,12,12a-hexahydro-pyrazino [1′,2′:1,6]pyrido[3,4-b]indole-1,4-dione] |  | 130 nM |  |
| CN1CC(=O)N2[C@H](c3cc4ccccc4o3)c3[nH]c4ccccc4c3C[C@@H]2C1=O [Example 3, (6S,12aR)-6-benzofuran-2-yl-2-methyl-2,3,6,7,12,12a-hexahydropyrazino[1′,2′:1,6]-pyrido[3,4-b]indole-1,4-dione] |  | 16 nM | 265 to 268 °C |
| CN1CC(=O)N2[C@H](c3cc4ccoc4s3)c3[nH]c4ccccc4c3C[C@@H]2C1=O [Example 9] |  | 12 nM |  |
| COC[C@@H]1c2[nH]c3ccccc3c2C[C@@H]2C(=O)N(C)CC(=O)N21 [Example 15] |  | 333 nM |  |
| CN1CC(=O)N2[C@@H](C3CC=CCC3)c3[nH]c4ccccc4c3C[C@H]2C1=O (stereo partly drawn) [Example 21, (+−, cis)-6-Cyclohex-3-enyl-2-methyl-2,3,6,7,12,12a-hexahydropyrazino[1′2′:1,6]pyrido[3,4-b]indole-1,4-dione] |  | 560 nM |  |
| CN1CC(=O)N2[C@H](Cc3c([nH]c4ccccc34)[C@H]2COCc2ccccc2)C1=O [Example 16, (6S,12aR)-6-Benzyloxymethyl-2-methyl-2,3,6,7,12,12a-hexahydropyrazino[1′2′:1,6]pyrido-[3,4-b]indole-1,4-dione] |  | 1500 nM | 181 to 187 °C |
| CC(C)C[C@H]1c2[nH]c3ccccc3c2C[C@H]2C(=O)N(C)CC(=O)N21 (racemic) [Example 19, (+−,cis)-6-Isobutyl-2-methyl-2,3,6,7,12,12a-hexa-hydropyrazino[1′2′:1,6]pyrido[3,4-b]indole-1,4-dione] |  | 4800 nM |  |
| CN1CC(=O)N2[C@@H](c3cc4ccccc4o3)c3[nH]c4ccccc4c3C[C@@H]2C1=O [Example 4] |  | 880 nM |  |
| Cc1c([C@@H]2c3[nH]c4ccccc4c3C[C@@H]3C(=O)N(C)CC(=O)N23)sc2ccccc12 [Example 8] |  | 1 nM |  |
| Cc1c([C@H]2c3[nH]c4ccccc4c3C[C@H]3C(=O)N(C)CC(=O)N23)sc2ccccc12 [Example 5, (6R,12aS)-2-methyl-6-(e-methyl-benzo[b]thiophen-2-yl)-2,3,6,7,12,12a-hexahydro-pyrazino[1′,2′:1,6]pyrido[3,4-b]indole-1,4-dione] |  | 25 nM | 230 to 234 °C |
| CN1CC(=O)N2[C@H](Cc3c([nH]c4ccccc34)[C@H]2CO)C1=O [Example 17, (6S,12aR)-6-Hydroxymethyl-2-methyl-2,3,6,7,12,12a-hexahydropyrazino-[1′2′:1,6]pyrido[3,4-b]indole-1,4-dione] |  | 23000 nM |  |
| Cc1c([C@@H]2c3[nH]c4ccccc4c3C[C@H]3C(=O)N(C)CC(=O)N23)sc2ccccc12 [Example 6] |  | 40 nM |  |
| Cc1c([C@H]2c3[nH]c4ccccc4c3C[C@@H]3C(=O)N(C)CC(=O)N23)sc2ccccc12 [Example 7, (6R,12aR)-2-methyl-6-(3-methylbenzo[b]thiophen-2-yl)-2,3,6,7,12,12a-hexahydropyrazino[1′2′:1,6]-pyrido[3,4-b]indole-1,4-dione] |  | 1570 nM |  |
